IC50, inhibition and melting point data for one compound are collected here from patent publication US8623862B2, “Derivatives of N-[(1H-pyrazol-1-yl)aryl]-1H-indole or 1H-indazole-3-carboxamide, preparation thereof and applications thereof in therapeutics” (Sanofi, priority 2011, dated 2014).

The test system of data set [1] is platelet aggregation. Kind of data set: Inhibition of platelet aggregation in vitro (rat blood).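 Note: aggregation induced by ADP added as 4 µL of a 250 µM solution.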 Format: cell-based. Particulars: 0.1 h; rat platelet-rich plasma, ADP-induced aggregation, area under the curve of absorbance for 6 minutes; read-out: Inhibition of platelet aggregation in vitro (rat blood). In short, it runs like this: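 Platelet-rich plasma from male Sprague-Dawley rats (250-300 g), prepared by centrifugation at 300 g for 5 minutes. Aggregation measured at 37° C in an aggregometer. Percentage inhibition derived from area under the absorbance curve over 6 minutes.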

Data set [2] relates to platelet aggregation. Kind of data set: Inhibition of platelet aggregation ex vivo (rat blood). The format is in vivo. Particulars: Platelet, 2 h; rat, gavage (oral), 10 mg/kg, two hours before taking the sample; read-out: Inhibition of platelet aggregation ex vivo (rat blood) in %, Gavage (oral) 10 mg/kg. How it is done: Inhibition of Platelet Aggregation Ex Vivo (Rat Blood)
Male rats of the Sprague-Dawley strain, weighing 250-300 g, are used at a rate of 6 animals per batch. Each test compound is diluted in a solution of glucose-containing water (glucose 5%) containing 5% of cremophore and 3% of glycofurol.
The compounds according to the invention are administered by stomach tube (10 ml/kg at 1 mg/ml) two hours before taking the sample or by infusion (1 ml/kg at 10 mg/ml) two hours before taking the sample.
The platelet-rich plasma (PRP) is obtained by centrifugation of the blood at 300 g for 5 minutes, and the measurements of platelet aggregation are performed as described above.
The results are calculated using the area under the curve of absorbance measured for 6 minutes, and expressed as percentage (%) of inhibition.

In turn, `CCCC(=O)c1cnn(-c2ccc(NC(=O)c3cn(CC(=O)N4CCN(CC(C)=O)CC4)c4ccc(Cl)cc34)cc2)c1C.Cl` [Compound 276, N-[4-(4-Butyryl-5-methyl-1H-pyrazol-1-yl)phenyl]-5-chloro-1-{2-oxo-2-[4-(2-oxopropyl)piperazin-1-yl]ethyl}-1H-indole-3-carboxamide hydrochloride] came in with a melting point of 248 °C. Further, the IC50 in data set [1] was 220 nM. Moreover, the inhibition at 10 mg/kg in data set [2] is 49.9%.

The term melting point denotes the temperature of the solid-liquid transition.
